Reference: the supplement of paper PMC4314810
± gives the standard deviation of the averaged measurements.

test system: MCF7; experiment: HRG-induced Akt activation (dPAkt = log2 pAkt/Akt HRG-stimulated minus log2 pAkt/Akt basal) (log2 ratio difference); higher = stronger HRG-induced Akt(T308) phosphorylation; conditions: miRNA mimic concentration 10 nM; time after transfection 72 h; heregulin 10 ng/ml; stimulation time 1 h
Outline: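 Akt activation induced by heregulin was calculated as the difference between stimulated and unstimulated log ratios of phospho-Akt to total Akt, then averaged across replicates. The ratio was taken as log2(pAkt/Akt) from In-Cell Western readings of phospho-Akt(T308) and total Akt on an Odyssey, corrected for column-wise fixation decay. Before reading, MCF7 cells ([…], 96-well plates) transfected with 879 miRNA mimics at 10 nM final via Lipofectamine RNAiMax were, after 72 h, given 10 ng/ml heregulin-beta1 for 1 h or no stimulus, then fixed with 4% PFA. Two biological replicates were run.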

Sequence	HRG-induced Akt activation (log2)
CUGAAGUGAUGUGUAACUGAUCAG	1.727 ± 0.0053
CUGACCUAUGAAUUGACAGCC	1.18 ± 0.15
CUGACUGUUGCCGUCCUCCAG	1.53 ± 0.13
CUGCAAAGGGAAGCCCUUUC	1.21 ± 0.33
CUGCAAUGUAAGCACUUCUUAC	0.874 ± 0.36
CUGCCAAUUCCAUAGGUCACAG	1.47 ± 0.11
CUGCCCUGGCCCGAGGGACCGA	1.21 ± 0.096
CUGCGCAAGCUACUGCCUUGCU	1.07 ± 0.26
CUGGACUGAGCCGUGCUACUGG	1.98 ± 0.076
CUGGAGAUAUGGAAGAGCUGUGU	1.14 ± 0.047
CUGGAUGGCUCCUCCAUGUCU	1.96 ± 0.42
CUGGCCCUCUCUGCCCUUCCGU	1.18 ± 0.4
CUGGGAGAAGGCUGUUUACUCU	1.04 ± 0.2
CUGGGAGAGGGUUGUUUACUCC	0.876 ± 0.34
CUGGGAGGUGGAUGUUUACUUC	0.961 ± 0.055
CUGGGAUCUCCGGGGUCUUGGUU	2 ± 0.076
CUGGUACAGGCCUGGGGGACAG	1.68 ± 0.29
CUGGUUUCACAUGGUGGCUUAG	2.33 ± 0.15
CUGUAAUAUAAAUUUAAUUUAUU	1.42 ± 0.037
CUGUACAGCCUCCUAGCUUUCC	2.26 ± 0.15
CUGUACAGGCCACUGCCUUGC	1.88 ± 0.41
CUGUAUGCCCUCACCGCUCA	2.27 ± 0.32

Sequence	HRG-induced Akt activation (log2)
CUGUGCGUGUGACAGCGGCUGA	0.692 ± 0.043
CUGUUGCCACUAACCUCAACCU	1.07 ± 0.11
CUUAGCAGGUUGUAUUAUCAUU	1.81 ± 0.098
CUUAUCAGAUUGUAUUGUAAUU	1.87 ± 0.024
CUUAUGCAAGAUUCCCUUCUAC	1.85 ± 0.23
CUUCCUCGUCUGUCUGCCCC	1.02 ± 0.055
CUUCUUGUGCUCUAGGAUUGU	1.13 ± 0.024
CUUGGCACCUAGCAAGCACUCA	1.45 ± 0.58
CUUGGUUCAGGGAGGGUCCCCA	1.58 ± 0.43
CUUUCAGUCAGAUGUUUGCUGC	1.67 ± 0.24
CUUUCAGUCGGAUGUUUACAGC	1.62 ± 0.098
CUUUCAGUCGGAUGUUUGCAGC	1.75 ± 0.2
CUUUUUGCGGUCUGGGCUUGC	2.31 ± 0.28
GAAAGCGCUUCCCUUUGCUGGA	1.63 ± 0.082
GAAAGCGCUUCUCUUUAGAGG	1.51 ± 0.33
GAAAGUGCUUCCUUUUAGAGGC	0.832 ± 0.68
GAAAUCAAGCGUGGGUGAGACC	1.77 ± 0.15
GAACGCCUGUUCUUGCCAGGUGG	1.4 ± 0.093
GAACGCGCUUCCCUAUAGAGGGU	1.42 ± 0.13
GAACGGCUUCAUACAGGAGUU	1.67 ± 0.12
GAAGGCGCUUCCCUUUAGAGCG	1.1 ± 0.5
GAAGGCGCUUCCCUUUGGAGU	1.41 ± 0.095

Sequence	HRG-induced Akt activation (log2)
GAAGUGCUUCGAUUUUGGGGUGU	1.12 ± 0.22
GAAGUGUGCCGUGGUGUGUCU	2.03 ± 0.31
GAAGUUGUUCGUGGUGGAUUCG	2.11 ± 0.022
GAAUGUUGCUCGGUGAACCCCU	1.33 ± 0.039
GACACGGGCGACAGCUGCGGCCC	1.03 ± 0.89
GACCUGGACAUGUUUGUGCCCAGU	1.71 ± 0.12
GACUAUAGAACUUUCCCCCUCA	1.07 ± 0.064
GACUGACACCUCUUUGGGUGAA	1.49 ± 0.18
GAGCCAGUUGGACAGGAGC	1.77 ± 0.38
GAGCUUAUUCAUAAAAGUGCAG	1.76 ± 0.036
GAGGGUCUUGGGAGGGAUGUGAC	1.44 ± 0.081
GAGGGUUGGGUGGAGGCUCUCC	1.47 ± 0.36
GAGUGCCUUCUUUUGGAGCGUU	1.04 ± 0.043
GAUGAGCUCAUUGUAAUAUGAG	1.71 ± 0.24
GAUGAUGAUGGCAGCAAAUUCUGAAA	1.87 ± 0.33
GAUGAUGCUGCUGAUGCUG	1.07 ± 0.52
GAUUAGGGUGCUUAGCUGUUAA	1.67 ± 0.28
GAUUGCUCUGCGUGCGGAAUCGAC	1.24 ± 0.29
GAUUUCAGUGGAGUGAAGUUC	1.744 ± 0.0085
GCAAAGCACACGGCCUGCAGAGA	1.27 ± 0.08
GCAGCAGAGAAUAGGACUACGUC	1.7 ± 0.032
GCAGGAACUUGUGAGUCUCCU	1.8 ± 0.32

Sequence	HRG-induced Akt activation (log2)
GCAGUCCAUGGGCAUAUACAC	1.66 ± 0.12
GCAUGGGUGGUUCAGUGG	1.52 ± 0.11
GCCCAAAGGUGAAUUUUUUGGG	1.33 ± 0.1
GCCCCUGGGCCUAUCCUAGAA	1.25 ± 0.56
GCCCGCGUGUGGAGCCAGGUGU	1.39 ± 0.14
GCCCUCCGCCCGUGCACCCCG	1.17 ± 0.14
GCCUGCUGGGGUGGAACCUGGU	1.81 ± 0.22
GCGACCCACUCUUGGUUUCCA	1.8 ± 0.034
GCGACCCAUACUUGGUUUCAG	1.44 ± 0.25
GCGAGGACCCCUCGGGGUCUGAC	1.05 ± 0.48
GCUACUUCACAACACCAGGGCC	1.67 ± 0.3
GCUAGUCCUGACUCAGCCAGU	2.19 ± 0.26
GCUAUUUCACGACACCAGGGUU	1.693 ± 0.0017
GCUGACUCCUAGUCCAGGGCUC	1.53 ± 0.099
GCUGCGCUUGGAUUUCGUCCCC	1.62 ± 0.098
GCUGGGCAGGGCUUCUGAGCUCCUU	1.68 ± 0.082
GCUGGUUUCAUAUGGUGGUUUAGA	1.82 ± 0.049
GGAGAAAUUAUCCUUGGUGUGU	0.932 ± 0.022
GGAGACGCGGCCCUGUUGGAGU	1.33 ± 0.052
GGAGGGGUCCCGCACUGGGAGG	1.82 ± 0.057
GGAUAUCAUCAUAUACUGUAAG	1.6 ± 0.044
GGAUUCCUGGAAAUACUGUUCU	1.2 ± 0.74

Sequence	HRG-induced Akt activation (log2)
GGCAGGUUCUCACCCUCUCUAGG	2.11 ± 0.13
GGCGGAGGGAAGUAGGUCCGUUGGU	1.52 ± 0.058
GGCUACAACACAGGACCCGGGC	1.88 ± 0.32
GGCUAGCAACAGCGCUUACCU	0.933 ± 0.081
GGGAGCCAGGAAGUAUUGAUGU	1.82 ± 0.069
GGGCGACAAAGCAAGACUCUUUCUU	1.56 ± 0.061
GGGCGCCUGUGAUCCCAAC	1.62 ± 0.015
GGGGAGCUGUGGAAGCAGUA	1.73 ± 0.21
GGGGGUCCCCGGUGCUCGGAUC	1.7 ± 0.064
GGGGUUCCUGGGGAUGGGAUUU	1.21 ± 0.3
GGGUGGGGAUUUGUUGCAUUAC	1.16 ± 0.097
GGUCCAGAGGGGAGAUAGGUUC	1.67 ± 0.24
GGUGCAGUGCUGCAUCUCUGGU	1.28 ± 0.0016
GGUGGCCCGGCCGUGCCUGAGG	1.55 ± 0.26
GGUUUGGUCCUAGCCUUUCUA	1.47 ± 0.2
GUAGAGGAGAUGGCGCAGGG	1.33 ± 0.22
GUAGAUUCUCCUUCUAUGAGUA	1.35 ± 0.17
GUCAGCGGAGGAAAAGAAACU	1.47 ± 0.037
